What was measured:
[1] = molecular target: T1, Notch transcriptional activation complex (CSL, Notch1, MAML1 on DNA) (Homo sapiens, UniProt P46531+Q06330); assay: Notch complex assembly assay (ALPHASCREEN); type: biochemical
T1 construct: the intracellular domain of Notch (“NICD”); made in house; host or cells: SF21 insect cells (baculovirus)
Excerpt: An in vitro assay was developed to monitor the assembly of the Notch transcriptional complex (“NTC”) on DNA. The NTC, which includes the Notch, Mastermind (“MAML1”), and CSL proteins, binds to a specific DNA sequence in a CSL-dependent manner. For the assay, baculovirus produced CSL, Notch, and MAML1 were mixed together with a biotinylated DNA oligomer containing the CSL target sequence. Assembly of the NTC on DNA was then monitored with the proximity-based ALPHASCREEN (Perkin Elmer) using streptavidin and protein A beads (FIGS. 1A and 1B). A signal results when MAML1 is recruited to CSL bound DNA.
All recombinant proteins were expressed using baculovirus expression vectors in SF21 cells and purified. Unless otherwise stated, all assays contained 125 fmol of double stranded oligonucleotide, CSL, Notch1 and MAML1 proteins. Reactions were carried out in Tris-buffered saline with 0.1% Tween (“TBS-T”) buffer containing 0.2% bovine serum albumin (“BSA”) and 100 ug/mL salmon sperm DNA. Briefly, the Notch complex was assembled on a biotinylated double stranded (“DS”) oligonucleotide harboring one CSL binding site (5′-[…]-3′). Complex assembly was quantitated using ALPHASCREEN technology (Perkin Elmer). Proteins in the complexes were detected using specific antibodies to either MAML1 (Cell signaling, D3K7B), Notch1 (Abcam, 52627) or CSL (anti-His, Abcam 18184). Streptavidin conjugated acceptor beads (Perkin Elmer, 6760002) were used to bind the DS oligonucleotide, and Protein-A conjugated donor beads (Perkin Elmer, 6760137) were used to detect antibody-coated proteins. For screening compounds, Notch transcriptional activation complex (“NTC”) components were added to wells that already contained the inhibitor to be assayed and allowed to incubate for 30 minutes. The ALPHASCREEN plate (Perkin Elmer, 6008350) was then read on an Envision Plate reader (Perkin Elmer) as specified by the manufacturer.
Determination of Equilibrium Dissociation Constants (KD) and Half Maximal Inhibitory Concentrations (IC50)

[2] = test system: MAML1 and Notch1 occupancy on HES1 promoter in OE33 and 786-0 cells; assay: Chromatin immunoprecipitation (ChIP) on the HES1 locus; type: cell-based, human; conditions: 24 hours
Method: The effect of inhibitor treatment on the assembly of the NTC in cells was investigated.
Cells (8×10^6 OE33 cells or 10×10^6 786-0 cells) were plated onto a 15 cm tissue culture dish a day prior to treatment. Cells were then treated for 24 hours with (N—[N-(3,5-difluorophenacetyl)-L-alanyl]-S-phenylglycine t-butyl ester (“DAPT”, 5 μM), Inhibitor No. 1-134-83 (25 μM), or DMSO vehicle. Following treatment, cells were cross-linked for 10 minutes with 1% formaldehyde. The reaction was then stopped by adding […] glycine. Cells were collected in SDS lysis buffer (1% SDS, 10 mM EDTA, 50 mM Tris-HCl pH 8.0) and sonicated to yield chromatin fragments of approximately 300 to 800 bp (8 minutes at high level for OE33 cells; 5 minutes at medium level for 786-0 cells in BIORUPTOR UCD-200 sonicator). Lysates were divided into equal parts and immunoprecipitated with either α-Notch1 (A301-894A, Bethyl Laboratories) or α-MAML1 (12166s, Cell Signaling Technology) antibody. Protein:DNA immunoprecipitates were then reverse cross-linked at 65° C. in 200 mM NaCl for 4 hours, followed by incubation with RNase A and proteinase K. DNA was then purified using a PCR purification kit (28104,
Qiagen). Immunoprecipitated DNA was then detected by SYBR green qPCR using HES1 specific oligonucleotide primers (forward: 5′CGTGTCTCCTCCTCCCATT3′; reverse: 5′GGGGGATTCCGCTGTTAT3′).

[3] = test system: Notch target gene transcription; assay: RT-qPCR of Notch target genes in cancer cell lines; type: cell-based, human
Method: The effect of inhibitor treatment on Notch-target gene transcription also was investigated (FIGS. 2C and 2D). […] As proof of specificity, transcription of the housekeeping gene, HPRT, was unaltered in treated cells. To test the effects of Notch inhibition on proliferation, a colony formation assay was performed.
To extend the analysis of tumor cell growth inhibition, several commonly used cancer cell lines were selected to test for sensitivity to Inhibitor No. 1-134-83 (FIGS. 3A and 3B). […] In this analysis, sensitivity to DAPT is taken to indicate specific inhibition of Notch activity. […] Cells that are refractory to DAPT were equally resistant to Inhibitor No. 1-134-83.
RT-PCR analysis was performed using TaqMan probes according to manufacturer's instructions. In particular, 80 ng of RNA equivalent was used per reaction. Gene expression was normalized to the TATA-binding protein (“TBP”) gene. As a control, hypoxanthine phosphoribosyltransferase 1 (“HPRT”) gene expression was also monitored.

[4] = test system: Notch-dependent somite formation; assay: Zebrafish somite formation; type: in vivo, D. rerio; conditions: embryos soaked in 40 μM from 8 hPF, scored at 13 hPF
Excerpt: The in vivo effects of the inhibitors of the disclosure also were investigated using D. rerio. Notch signaling plays a role in somite formation in developing vertebrate embryos. Changes in levels of Notch signaling (either increased or decreased) during development of the zebrafish embryo result in disruption of the symmetric, bilaterally formed somites, which can be readily observed. Thus, disruption of somitogenesis in zebrafish represents a convenient dose-sensitive readout for Notch pathway stimulation or inhibition. When 100 pg of mNotch1 was injected in mRNA, defects in somitogenesis in 90% of the embryos resulted (compared to 0% disrupted embryos in the control group) (FIG. 5). […] Disruption of somite formation was not observed, however, when embryos were soaked in vehicle control (DMSO). […] On three separate days, multiple clutches of embryos from two or more breeding pairs of the AB wild type line were combined and incubated at 28.5° C. for 8 hours in E3 medium with 0.1% (w/v) methylene blue. The embryos were then placed into fresh E3 medium with 0.1% (w/v) methylene blue containing 50 μM DMSO, 40 μM compound 1-134-83, or nothing. […] At 13 hours post fertilization, samples were collected and scored for the presence of discrete somite boarders on a Zeiss Stemi 2000-CS scope. Data was analyzed using Fisher's exact test in R3.1.0. […]

T1 sequence (P46531 1754-2555 limits assumed): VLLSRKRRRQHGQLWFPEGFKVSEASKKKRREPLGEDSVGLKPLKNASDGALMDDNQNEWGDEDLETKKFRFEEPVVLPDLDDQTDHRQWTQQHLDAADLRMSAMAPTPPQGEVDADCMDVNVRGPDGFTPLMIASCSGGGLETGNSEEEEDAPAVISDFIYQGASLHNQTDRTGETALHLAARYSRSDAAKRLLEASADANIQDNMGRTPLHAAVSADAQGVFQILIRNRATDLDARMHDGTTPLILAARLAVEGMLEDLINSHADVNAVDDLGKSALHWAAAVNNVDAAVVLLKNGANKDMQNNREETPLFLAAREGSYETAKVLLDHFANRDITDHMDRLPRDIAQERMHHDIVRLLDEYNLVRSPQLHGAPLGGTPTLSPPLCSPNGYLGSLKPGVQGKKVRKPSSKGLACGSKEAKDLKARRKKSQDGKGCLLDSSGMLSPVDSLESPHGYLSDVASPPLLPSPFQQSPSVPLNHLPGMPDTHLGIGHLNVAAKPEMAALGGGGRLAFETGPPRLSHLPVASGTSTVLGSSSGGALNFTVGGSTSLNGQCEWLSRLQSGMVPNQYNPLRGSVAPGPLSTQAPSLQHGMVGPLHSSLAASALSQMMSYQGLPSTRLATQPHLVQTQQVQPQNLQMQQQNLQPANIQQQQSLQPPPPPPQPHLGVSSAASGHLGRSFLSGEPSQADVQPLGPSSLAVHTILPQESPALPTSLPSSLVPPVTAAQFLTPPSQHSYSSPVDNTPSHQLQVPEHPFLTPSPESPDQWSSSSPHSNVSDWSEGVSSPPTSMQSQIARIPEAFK
T1 sequence (Q06330 whole entry, the tested form may be a part): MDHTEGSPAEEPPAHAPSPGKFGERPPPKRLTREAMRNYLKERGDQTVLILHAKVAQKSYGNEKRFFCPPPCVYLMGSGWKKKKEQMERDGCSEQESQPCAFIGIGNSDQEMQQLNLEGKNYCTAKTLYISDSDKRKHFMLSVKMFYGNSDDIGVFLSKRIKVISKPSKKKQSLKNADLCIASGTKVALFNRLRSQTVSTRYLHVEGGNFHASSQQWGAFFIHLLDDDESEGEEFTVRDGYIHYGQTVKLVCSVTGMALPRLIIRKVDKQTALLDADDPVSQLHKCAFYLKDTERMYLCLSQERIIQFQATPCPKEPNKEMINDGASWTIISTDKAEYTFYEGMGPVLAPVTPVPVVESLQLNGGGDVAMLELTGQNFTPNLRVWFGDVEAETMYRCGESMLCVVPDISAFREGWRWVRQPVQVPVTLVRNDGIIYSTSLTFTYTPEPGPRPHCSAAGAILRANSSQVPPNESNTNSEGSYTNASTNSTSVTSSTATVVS

- IC50 [1]: 26 µM
SMILES: CCOC(=O)COc1ccc(/C=C2\SC(=S)NC2=O)cc1OC [1-134-83]
- occupancy of MAML1 on the HES1 promoter [2]: decreased the occupancy
- occupancy of NOTCH1 on the HES1 promoter [2]: did not affect
- Notch target gene transcription ([3]; OE33 and 786-0 cells, qPCR): dose-dependent decrease
- transcription of control gene HPRT ([3]; OE33 and 786-0 cells, qPCR): unaltered
- Notch target gene transcription ([3]; insensitive cancer cell lines of the panel, 48 hrs): do not show a statistically significant reduction
- Notch target gene transcription ([3]; sensitive cancer cell lines of the panel, 48 hrs, DAPT 10, 1-134-83 15 and 25 μM): significantly reduced
- somite formation in embryos [4]: disrupted somites
